From ChEMBL document CHEMBL4308841, “Synthesis, in vitro antiproliferative activity, and kinase inhibitory effects of pyrazole-containing diarylureas and diarylamides” (Eur J Med Chem, 2018)

Legend:
SK-MEL-5 = test: Growth inhibition of human SK-MEL-5 cells assessed as cell growth at 10 uM incubated for 48 hrs by sulforhodamine B assay relative to control; assay type: functional; conditions: SK-MEL-5, 48 h, read-out: Activity
MDA-MB-231 [1] = test: Growth inhibition of human MDA-MB-231 cells assessed as cell growth at 10 uM incubated for 48 hrs by sulforhodamine B assay relative to control; assay type: functional; conditions: MDA-MB-231, 48 h, read-out: Activity
MCF7 = test: Growth inhibition of human MCF7 cells assessed as cell growth at 0.1 uM incubated for 48 hrs by sulforhodamine B assay relative to control; assay type: functional; conditions: MCF7, 48 h, read-out: Activity
BT-549 = test: Growth inhibition of human BT549 cells assessed as cell growth at 10 uM incubated for 48 hrs by sulforhodamine B assay relative to control; assay type: functional; conditions: BT-549, 48 h, read-out: Activity
U-251 = test: Growth inhibition of human U251 cells assessed as cell growth at 1 uM incubated for 48 hrs by sulforhodamine B assay relative to control; assay type: functional; conditions: U-251, 48 h, read-out: Activity
SK-MEL-28 = test: Growth inhibition of human SK-MEL-28 cells assessed as cell growth at 10 uM incubated for 48 hrs by sulforhodamine B assay relative to control; assay type: functional; conditions: SK-MEL-28, 48 h, read-out: Activity
HCT-116 = test: Growth inhibition of human HCT116 cells assessed as cell growth at 10 uM incubated for 48 hrs by sulforhodamine B assay relative to control; assay type: functional; conditions: HCT-116, 48 h, read-out: Activity
NCI-H23 = test: Growth inhibition of human NCI-H23 cells assessed as cell growth at 10 uM incubated for 48 hrs by sulforhodamine B assay relative to control; assay type: functional; conditions: NCI-H23, 48 h, read-out: Activity
NCI-H322M = test: Growth inhibition of human NCI-H322M cells assessed as cell growth at 10 uM incubated for 48 hrs by sulforhodamine B assay relative to control; assay type: functional; conditions: read-out: Activity
A498 = test: Growth inhibition of human A498 cells assessed as cell growth at 0.1 uM incubated for 48 hrs by sulforhodamine B assay relative to control; assay type: functional; conditions: A498, 48 h, read-out: Activity
COLO 205 [2] = test: Growth inhibition of human COLO205 cells assessed as cell growth at 0.1 uM incubated for 48 hrs by sulforhodamine B assay relative to control; assay type: functional; conditions: COLO 205, 48 h, read-out: Activity
PC-3 = test: Growth inhibition of human PC3 cells assessed as cell growth at 10 uM incubated for 48 hrs by sulforhodamine B assay relative to control; assay type: functional; conditions: PC-3, 48 h, read-out: Activity
HCT-15 = test: Growth inhibition of human HCT15 cells assessed as cell growth at 10 uM incubated for 48 hrs by sulforhodamine B assay relative to control; assay type: functional; conditions: HCT-15, 48 h, read-out: Activity
COLO 205 [3] = test: Growth inhibition of human COLO205 cells assessed as cell growth at 10 uM incubated for 48 hrs by sulforhodamine B assay relative to control; assay type: functional; conditions: COLO 205, 48 h, read-out: Activity
NCI-H460 = test: Growth inhibition of human NCI-H460 cells assessed as cell growth at 10 uM incubated for 48 hrs by sulforhodamine B assay relative to control; assay type: functional; conditions: NCI-H460, 48 h, read-out: Activity
UO-31 = test: Growth inhibition of human UO31 cells assessed as cell growth at 10 uM incubated for 48 hrs by sulforhodamine B assay relative to control; assay type: functional; conditions: UO-31, 48 h, read-out: Activity
M14 = test: Growth inhibition of human M14 cells assessed as cell growth at 10 uM incubated for 48 hrs by sulforhodamine B assay relative to control; assay type: functional; conditions: M14, 48 h, read-out: Activity
HOP-62 = test: Growth inhibition of human HOP62 cells assessed as cell growth at 10 uM incubated for 48 hrs by sulforhodamine B assay relative to control; assay type: functional; conditions: HOP-62, 48 h, read-out: Activity
SF-539 [4] = test: Growth inhibition of human SF539 cells assessed as cell growth at 10 uM incubated for 48 hrs by sulforhodamine B assay relative to control; assay type: functional; conditions: SF-539, 48 h, read-out: Activity
KM12 = test: Growth inhibition of human KM12 cells assessed as cell growth at 10 uM incubated for 48 hrs by sulforhodamine B assay relative to control; assay type: functional; conditions: KM12, 48 h, read-out: Activity
MDA-MB-468 = test: Growth inhibition of human MDA-MB-468 cells assessed as cell growth at 10 uM incubated for 48 hrs by sulforhodamine B assay relative to control; assay type: functional; conditions: MDA-MB-468, 48 h, read-out: Activity
Malme-3M = test: Growth inhibition of human MALME-3M cells assessed as cell growth at 10 uM incubated for 48 hrs by sulforhodamine B assay relative to control; assay type: functional; conditions: read-out: Activity
MDA-MB-231 [5] = test: Growth inhibition of human MDA-MB-231 cells incubated for 48 hrs by sulforhodamine B assay; assay type: functional, cell-based; conditions: MDA-MB-231, 48 h
CCRF-CEM = test: Growth inhibition of human CCRF-CEM cells assessed as cell growth at 10 uM incubated for 48 hrs by sulforhodamine B assay relative to control; assay type: functional; conditions: read-out: Activity
K562 = test: Growth inhibition of human K562 cells assessed as cell growth at 10 uM incubated for 48 hrs by sulforhodamine B assay relative to control; assay type: functional; conditions: K562, 48 h, read-out: Activity
LOX IMVI = test: Growth inhibition of human LOXIMVI cells assessed as cell growth at 10 uM incubated for 48 hrs by sulforhodamine B assay relative to control; assay type: functional; conditions: read-out: Activity
OVCAR-3 = test: Growth inhibition of human OVCAR3 cells assessed as cell growth at 0.1 uM incubated for 48 hrs by sulforhodamine B assay relative to control; assay type: functional; conditions: OVCAR-3, 48 h, read-out: Activity
COLO 205 [6] = test: Growth inhibition of human COLO205 cells assessed as cell growth at 0.01 uM incubated for 48 hrs by sulforhodamine B assay relative to control; assay type: functional; conditions: COLO 205, 48 h, read-out: Activity
SF-539 [7] = test: Growth inhibition of human SF539 cells incubated for 48 hrs by sulforhodamine B assay; assay type: functional, cell-based; conditions: SF-539, 48 h
OVCAR-5 = test: Growth inhibition of human OVCAR5 cells incubated for 48 hrs by sulforhodamine B assay; assay type: functional, cell-based; conditions: OVCAR-5, 48 h
UACC-257 = test: Growth inhibition of human UACC257 cells assessed as cell growth at 0.1 uM incubated for 48 hrs by sulforhodamine B assay relative to control; assay type: functional; conditions: UACC-257, 48 h, read-out: Activity
[8] = read-out: LC50 (the source's name)
[9] = read-out: pLC50 (the source's name) (converted)

Compound: O=C(Nc1cccc(-n2cc(-c3ccncc3)c(-c3cc(O)cc(Cl)c3)n2)c1)c1cc(C(F)(F)F)cc(C(F)(F)F)c1
- growth at 10 µM (SK-MEL-5): 64.5%
- growth at 10 µM (MDA-MB-231 [1]): -34.6%
- growth at 0.1 µM (MCF7): 92%
- growth at 10 µM (BT-549): 73.4%
- growth at 1 µM (U-251): 53%
- growth at 10 µM (SK-MEL-28): 63.6%
- growth at 10 µM (HCT-116): 24.6%
- growth at 10 µM (NCI-H23): 42.7%
- growth at 10 µM (NCI-H322M): 74.1%
- growth at 0.1 µM (A498): 87%
- growth at 0.1 µM (COLO 205 [2]): 102%
- growth at 10 µM (PC-3): 21.7%
- growth at 10 µM (HCT-15): 30.1%
- growth at 10 µM (COLO 205 [3]): 38.7%
- growth at 10 µM (NCI-H460): 19.9%
- growth at 10 µM (UO-31): 49.1%
- growth at 10 µM (M14): 24.5%
- growth at 10 µM (HOP-62): 58.3%
- growth at 10 µM (SF-539 [4]): 75.5%
- growth at 10 µM (KM12): 21.2%
- growth at 10 µM (MDA-MB-468): 31.2%
- growth at 10 µM (Malme-3M): 61.8%
- GI50 (MDA-MB-231 [5]; read-out: GI50): 1.42 µM
- CC50 (MDA-MB-231 [5]; [8]): 77.8 µM
- TGI (MDA-MB-231 [5]; read-out: TGI): 33.2 µM
- GI50 (MDA-MB-231 [5]; read-out: pGI50 (converted)): 1.41 µM
- CC50 (MDA-MB-231 [5]; [9]): 7.76 µM
- TGI (MDA-MB-231 [5]; read-out: pTGI (converted)): 3.31 µM
- growth at 10 µM (CCRF-CEM): 26.9%
- growth at 10 µM (K562): 20.4%
- growth at 10 µM (LOX IMVI): 10.5%
- growth at 0.1 µM (OVCAR-3): 102%
- growth at 0.01 µM (COLO 205 [6]): 102%
- GI50 (SF-539 [7]; read-out: GI50): 5.01 µM
- CC50 (SF-539 [7]; [8]): > 100 µM
- TGI (SF-539 [7]; read-out: TGI): 51.7 µM
- GI50 (SF-539 [7]; read-out: pGI50 (converted)): 5.01 µM
- CC50 (SF-539 [7]; [9]): > 100 µM
- TGI (SF-539 [7]; read-out: pTGI (converted)): 51.3 µM
- GI50 (OVCAR-5; read-out: GI50): 8.23 µM
- CC50 (OVCAR-5; [8]): > 100 µM
- TGI (OVCAR-5; read-out: TGI): 38.4 µM
- GI50 (OVCAR-5; read-out: pGI50 (converted)): 8.32 µM
- CC50 (OVCAR-5; [9]): > 100 µM
- TGI (OVCAR-5; read-out: pTGI (converted)): 38 µM
- growth at 0.1 µM (UACC-257): 98%

Compound: O=C(Nc1cccc(-n2cc(-c3ccncc3)c(-c3cc(O)cc(Cl)c3)n2)c1)Nc1ccc(Cl)c(C(F)(F)F)c1
- growth at 10 µM (SK-MEL-5): 23.8%
- growth at 10 µM (MDA-MB-231 [1]): -47.3%
- growth at 0.1 µM (MCF7): 91%
- growth at 10 µM (BT-549): 47.6%
- growth at 1 µM (U-251): 56%
- growth at 10 µM (SK-MEL-28): -13.5%
- growth at 10 µM (HCT-116): 6.95%
- growth at 10 µM (NCI-H23): 10.5%
- growth at 10 µM (NCI-H322M): 45%
- growth at 0.1 µM (A498): 50%
- growth at 0.1 µM (COLO 205 [2]): 95%
- growth at 10 µM (PC-3): 5.34%
- growth at 10 µM (HCT-15): 5.79%
- growth at 10 µM (COLO 205 [3]): 63.4%
- growth at 10 µM (NCI-H460): 3.75%
- growth at 10 µM (UO-31): 18.5%
- growth at 10 µM (M14): -16.8%
- growth at 10 µM (HOP-62): 8.99%
- growth at 10 µM (SF-539 [4]): 32.6%
- growth at 10 µM (KM12): 15.1%
- growth at 10 µM (MDA-MB-468): 5.22%
- growth at 10 µM (Malme-3M): -24.9%
- GI50 (MDA-MB-231 [5]; read-out: GI50): 1.55 µM
- CC50 (MDA-MB-231 [5]; [8]): > 100 µM
- TGI (MDA-MB-231 [5]; read-out: TGI): 50.6 µM
- GI50 (MDA-MB-231 [5]; read-out: pGI50 (converted)): 1.86 µM
- CC50 (MDA-MB-231 [5]; [9]): > 100 µM
- TGI (MDA-MB-231 [5]; read-out: pTGI (converted)): 5.89 µM
- growth at 10 µM (CCRF-CEM): 9.31%
- growth at 10 µM (K562): 5.24%
- growth at 10 µM (LOX IMVI): 2.08%
- growth at 0.1 µM (OVCAR-3): 95%
- growth at 0.01 µM (COLO 205 [6]): 102%
- GI50 (SF-539 [7]; read-out: GI50): 1.97 µM
- CC50 (SF-539 [7]; [8]): 13.7 µM
- TGI (SF-539 [7]; read-out: TGI): 44.9 µM
- GI50 (SF-539 [7]; read-out: pGI50 (converted)): 1.95 µM
- CC50 (SF-539 [7]; [9]): 13.8 µM
- TGI (SF-539 [7]; read-out: pTGI (converted)): 4.47 µM
- GI50 (OVCAR-5; read-out: GI50): 3.79 µM
- CC50 (OVCAR-5; [8]): 54.1 µM
- TGI (OVCAR-5; read-out: TGI): 13.1 µM
- GI50 (OVCAR-5; read-out: pGI50 (converted)): 3.8 µM
- CC50 (OVCAR-5; [9]): 83.2 µM
- TGI (OVCAR-5; read-out: pTGI (converted)): 13.2 µM
- growth at 0.1 µM (UACC-257): 91%
